Laboratory results from patent US7745402B2, “Method of treating pancreatitis” (Lundbeck Inc., priority 2005, dated 2010).
d = 2'-deoxy (DNA); r = 2'-OH (RNA)

What was measured:
[1] = tested on: HO-1; experiment: HO-1 knock-down in vivo by siRNA, immunoblot of peritoneal cells; design: species or system mice; conditions: siRNA 2 mg/kg i.p. 3×, hemin on intervening days
Method: (§1) (A,B) Peritoneal cells were isolated from hemin-treated mice that were also injected intraperitoneally on alternate days with saline (−), HO-1 siRNA (construct #1 and #2), or scramble control (Sc) siRNA. The peritoneal cells were then used to examine HO-1 and HO-2 levels by immunoblotting. (C,D) Peritoneal cells were harvested from hemin/construct #2 HO-1 siRNA or hemin/scrambled siRNA injected mice then transferred into naive recipient littermates followed by immediate initiation of CDD feeding. At 2.5 d of CDD feeding, pancreata were collected for histologic scoring. Data for histology score are presented as mean±SD (n=5-6/group), and are 6.4±1.7 (scrambled) and 12.7±4.5 (HO-1 siRNA). (E) Pancreata from panels C,D were double stained using antibodies to F4/80 and HO-1 (scale bar=20 μm).
HO-1 siRNA and hemin pretreated cell transfer. Mice were injected i.p. every other day (3 total injections) with either saline or with two HO-1 siRNA constructs (2 mg/kg body weight), or with a scrambled siRNA sequence. Hemin was injected in the intervening days (an additional 3 injections). After 7 days, peritoneal cells were harvested and analyzed by immunoblotting using antibodies to HO-1/2. […] The siRNAs were synthesized by Dharmacon Research Inc. (Lafayette, Colo.) and tested previously. Zhang, X., Shan, P., Jiang, D., Noble, P. W., Abraham, N. G., Kappas, A., and Lee, P. J. 2004. […]

[2] = tested on: CDD-induced pancreatitis; experiment: Transfer of hemin/siRNA pretreated peritoneal cells into CDD-fed mice, histologic scoring; format: in vivo; conditions: recipients of peritoneal cells from hemin + siRNA injected mice; 2.5 d CDD; mean±SD, n=5-6/group
Method: as §1, with “(E) Pancreata from panels C,D were double stained using antibodies to F4/80 and HO-1 (scale bar=20 μm).” left out
Hemin pretreated peritoneal cell transfer into CDD-fed mice. […] Mice were sacrificed after 2.5 d of CDD feeding, followed by isolation of the pancreata.(for histological and fluorescence staining) and blood. […] The severity of pancreatitis was scored using established histological criteria that assigned individual numerical scores (1=mild, 2=moderate, 3=severe) to edema, inflammation, hemorrhage; and alternate scores for parenchymal necrosis (3=focal, 5=sublobular, and 7=lobular). […]
HO-1 siRNA and hemin pretreated cell transfer. […] After 7 days, peritoneal cells were harvested and analyzed by immunoblotting using antibodies to HO-1/2. […]

| Substance | HO-1 level in peritoneal cells [1] | histology score [2] |
| --- | --- | --- |
| HO-1 siRNA: HO-1 siRNA construct #2: 5′-GCCACACAGCACUAUGUAAdTdT-3′ (sense), 5′-UUACAUAGUGCUGUGUGGCdTdT-3′ (antisense) (sense GCCACACAGCACUAUGUAATT; antisense UUACAUAGUGCUGUGUGGCTT; chemistry not fully specified) | significant inhibition of HO-1 | 12.7±4.5 |
| scrambled: nonspecific siRNA scrambled duplex: 5′-GCGCGCUUUGUAGGAUUCGdTdT-3′ (sense), 5′-CGAAUCCUACAAAGCGCGCdTdT-3′ (antisense) (sense GCGCGCUUUGUAGGAUUCGTT; antisense CGAAUCCUACAAAGCGCGCTT; sugars from the 5' end r19 d2, backbone not given here) | – | 6.4±1.7 |
